According to patent US9012481B2, “Benzoarylureido compounds, and composition for prevention or treatment of neurodegenerative brain disease containing the same” (Korea Institute of Science and Technology, priority 2009, dated 2015):
Where two headings read alike, the source gives them in different places.

Experiments:
BV-2 cells = assay: Cell viability (MTT analysis) of beta-amyloid treated BV-2 cells; assay type: cell-based; conditions: Mus musculus, BV-2 cells, average of three experiments
Procedure: Beta-amyloid (Aβ25-35, Sigma Chemical Co., St. Louis, Mo., USA) was diluted with aseptic desalted water and preservative solution (1 mM, GIBCO), and kept in aliquots at −70° C. To the treatment of beta-amyloid, beta-amyloid preservative solution was diluted to desired concentrations in a treatment medium (DMEM, GIBCO). The reagents were newly provided as a preservative solution (10 mM) under DMSO (dimethylsulfoxide), and diluted in treatment medium to desired concentrations.
BV-2 microglia cells (allotted from Pharmacology Division of Ajou University) were cultivated in DMEM (Dulbecco's Modified Eagle's Medium) supplemented with 5% fetal bovine serum (Invitrogen, Carlsbad, Calif., USA), sou/Ml penicillin (Invitrogen, Carlsbad, Calif., USA), and 50 μg/Ml streptomycin (Invitrogen, Carlsbad, Calif., USA) under the atmosphere condition with 5% CO2 and 95% air at 37° C. The medium was replaced once a day, the cells were plate-cultured in a density according to the scale of each experiment.
BV-2 cells were plate-cultured in 96-well plate at the density of 5×10^4, the cell viability was measured according to a conventional MTT analysis method and lactate dehydrogenase (LDH) analysis method. The MTT analysis depends on the metabolism ability of mitochondria of living cell, and reflexes intracellular redox states. The cultured cells were treated with MTT a solution (final concentration: 1 mg/Ml) for 4 hours. Deep blue formazan crystal generated in the original cells was dissolved in a lysis buffer, and then, the absorbance was detected at 595 nm with microplate reader. The LDH activity released from the culture medium was detected, which was evaluated as a cell death index. The culture medium was added to a reagent (test, Sigma Chemical Co, St. Louis, Mo., USA) containing sodium lactate, NADH and sodium pyruvate, and then, the absorbance reduction by NADH at 340 nm was measured. The result was calculated assuming that the LDH activity in homogenate solution of the non-treated control is 100%.
[…] For microscope analysis, BV-2 cells were used in 6-well plate at the density of 5×10^5 cells/well, for MTT analysis, BV-2 cells were used in 96-well plate at the density of 5×10^4 cells/well.
The obtained prevention effects of KHG25967 compound on toxicity induced by beta-amyloid in BV-2 cells were FIGS. 1A and 1b.
For MTT analysis, BV-2 cells were used on 96-well plate in the density of 5×10^4 cells/well. The quantitative analysis results (unit: %) for the cell viability obtained by MTT analysis were shown in Table 2, wherein the values are represented by the average of three experiments per each concentration.

[1] = compound 500 nM for 24 hours after 50 μM beta-amyloid for 2 hours, read-out: cell viability by MTT analysis

Compound | melting point [°C] | viability at 0.5 µM (BV-2 cells; BV-2, read-out: cell viability by MTT analysis, compound 500 nM for 24 hours after 50 μM beta-amyloid for 2 hours) [%] | viability at 0.5 µM (BV-2 cells; [1]) [%]
O=C([O-])CCCNC(=O)Nc1nc2ccccc2s1.[K+] [KHG26221, potassium 4-(3-benzo[d]thiazole-2-ylureido)butanoate] | 241 | 44 | 
O=C(NCCO)Nc1nc2ccccc2s1 [KHG26279, 1-(benzo[d]thiazole-2-yl)-3-(2-hydroxyethyl)urea] | 223 |  | 36
Cn1c(NC(=O)NCC(=O)O)nc2ccccc21 [KHG26280, 2-(3-(1-methyl-1H-benzo[d]imidazole-2-yl)ureido)acetic acid] | 200 |  | 33
CCOC(=O)CNC(=S)Nc1nc2ccccc2n1C [KHG26303, ethyl 2-(3-(1-methyl-1H-benzo[d]imidazole-2-yl)thioureido)acetate] | 185 |  | 48
CCOC(=O)CNC(=S)Nc1nc2c(C)cccc2s1 [KHG26306, ethyl 2-(3-(4-methylbenzo[d]thiazole-2-yl)thioureido)acetate] | 219 |  | 62
CCOC(=O)CNC(=S)Nc1nc2c(Cl)cccc2s1 [KHG26312, ethyl 2-(3-(4-chlorobenzo[d]thiazole-2-yl)thioureido)acetate] | 198 |  | 55
O=C(O)CNC(=S)Nc1nc2ccccc2s1 [KHG26316, 2-(3-benzo[d]thiazole-2-ylthioureido)acetic acid] | 200 |  | 57
Cn1c(NC(=S)NCC(=O)O)nc2ccccc21 [KHG26334, 2-(3-(1-methyl-1H-benzo[d]imidazole-2-yl)thioureido)acetic acid] | 172 |  | 75
Cc1cc2nc(NC(=S)NCC(=O)O)sc2cc1C [KHG26335, 2-(3-(5,6-dimethylbenzo[d]thiazole-2-yl)thioureido)acetic acid] | 212 |  | 81
Cc1cccc2sc(NC(=S)NCC(=O)O)nc12 [KHG26340, 2-(3-(4-methylbenzo[d]thiazole-2-yl)thioureido)acetic acid] | 214 |  | 78
O=C(O)CNC(=S)Nc1nc2ccc(Cl)cc2s1 [KHG26341, 2-(3-(6-chlorobenzo[d]thiazole-2-yl)thioureido)acetic acid] | 193 |  | 67
COCCNC(=O)Nc1nc2ccccc2s1 [KHG26344, 1-(benzo[d]thiazole-2-yl)-3-(2-methoxyethyl)urea] | 257 |  | 58
O=C(NCc1nn[nH]n1)Nc1nc2ccccc2s1 [KHG26345] | 249 |  | 63

Continued, in another order:

melting point [°C] | Compound | viability at 0.5 µM (BV-2 cells; BV-2, read-out: cell viability by MTT analysis, compound 500 nM for 24 hours after 50 μM beta-amyloid for 2 hours) [%] | viability at 0.5 µM (BV-2 cells; [1]) [%]
204 | CCOC(=O)CNC(=S)Nc1nc2ccccc2s1 [KHG26304, ethyl 2-(3-benzo[d]thiazole-2-ylthioureido)acetate] |  | 41
290.8 | CCOC(=O)CNC(=S)Nc1nc2ccc(C)cc2s1 [KHG26305, ethyl 2-(3-(6-methylbenzo[d]thiazole-2-yl)thioureido)acetate] |  | 37
255 | CCOC(=O)CNC(=S)Nc1nc2cc(C)c(C)cc2s1 [KHG26307, ethyl 2-(3-(5,6-dimethylbenzo[d]thiazole-2-yl)thioureido)acetate] |  | 48
324 | CCOC(=O)CNC(=S)Nc1nc2ccc(OC)cc2s1 [KHG26308, ethyl 2-(3-(6-methoxybenzo[d]thiazole-2-yl)thioureido)acetate] |  | 44
183 | CCOC(=O)CNC(=S)Nc1nc2ccc(OCC)cc2s1 [KHG26309, ethyl 2-(3-(6-ethoxybenzo[d]thiazole-2-yl)thioureido)acetate] |  | 65
160 | CCOC(=O)CNC(=S)Nc1nc2ccc(F)cc2s1 [KHG26310, ethyl 2-(3-(6-fluorobenzo[d]thiazole-2-yl)thioureido)acetate] |  | 30
184 | CCOC(=O)CNC(=S)Nc1nc2ccc(Cl)cc2s1 [KHG26311, ethyl 2-(3-(6-chlorobenzo[d]thiazole-2-yl)thioureido)acetate] |  | 67
200 | CCOc1ccc2nc(NC(=S)NCC(=O)O)sc2c1 [KHG26336, 2-(3-(6-ethoxybenzo[d]thiazole-2-yl)thioureido)acetic acid] |  | 67
